From ChEMBL document CHEMBL1137949, “Mechanism of action of pyridazine analogues on protein tyrosine phosphatase 1B (PTP1B)” (Bioorg Med Chem Lett, 2004)
Active and inactive are the calls of the source. The rule behind the calls is not given here.

Legend:
[1] = Enzymatic activity of protein tyrosine phosphatase 1B in the presence (10 uM) was measured using para-nitrophenylphosphate (pNPP) as the substrate in the presence of […] (1 mM) and catalase (25 ug/mL); abolished the inhibitory effect
[2] = Enzymatic activity of protein tyrosine phosphatase 1B in the presence (10 uM) was measured using para-nitrophenylphosphate (pNPP) as the substrate in the presence of […] (1 mM); inhibited
[3] = Enzymatic activity of protein tyrosine phosphatase 1B in the presence (10 uM) was measured using para-nitrophenylphosphate (pNPP) as the substrate; active
[4] = Inhibitory activity against Protein-tyrosine phosphatase activity; active
[5] = Enzymatic activity of protein tyrosine phosphatase 1B in the presence (10 uM) was measured using para-nitrophenylphosphate (pNPP) as the substrate in the presence of TCEP (1 mM) and catalase (25 ug/mL); activity not restored
[6] = Enzymatic activity of protein tyrosine phosphatase 1B in the presence (10 uM) was measured using para-nitrophenylphosphate (pNPP) as the substrate in the presence of TCEP (1 mM); inhibited

In the case of CC1(C)C=C2C(=NN(c3ccccc3)C(N)=C2C#N)CO1.OC(CS)C(O)CS, the Activity [1] is reported as “abolished the inhibitory effect” and the Activity [2] is reported as “abolished the inhibitory effect”.

For O=C(O)CCP(CCC(=O)O)CCC(=O)O, the Activity [3] was “Active”.

In the case of OO, the Activity [4] is reported as “Active”.

In the case of O=C1CC(=O)N(c2ccccc2)O1, the Activity [4] is reported as “Active”.

With OC(CS)C(O)CS (centres undefined) the Activity [3] was “Active”.

With CC1(C)C=C2C(=NN(c3ccccc3)C(N)=C2C#N)CO1.O=C(O)CCP(CCC(=O)O)CCC(=O)O the Activity [5] was “activity not restored” and the Activity [6] was “activity not restored”.

For CC1(C)C=C2C(=NN(c3ccccc3)C(N)=C2C#N)CO1, the Activity [3] was “Active”.
